Like-named read-outs stand apart in the source and are kept apart here. Positions of bridges follow the written chain, without caps; N, C: chain ends. Non-standard residues stand in square brackets, D forms with d. Residues, ends and D or L forms follow the SMILES beside them. Hyp = O=C(O)[C@@H]1C[C@@H](O)CN1; Orn = NCCC[C@H](N)C(=O)O; Thz = O=C(O)[C@@H]1CSCN1
Legend:
[1] = In vivo acute food intake model (BioDAQ) in C57BL/6J male mice; settings: single subcutaneous dose 1 mg/kg, cumulative food intake
Method: The MC4R system is central to appetite regulation and agonists are known inhibit food intake. In order to screen compounds in a relevant in vivo model, efficacy was assessed by determining the effect of the compound on reducing food intake acutely in mice.
All animal protocols were approved by an Institutional Animal Care and Use Committee and Ethical Review Committee of Novo Nordisk. Animals were housed according to Novo Nordisk rodent housing standards, and were given ad libitum access to food and water under controlled lighting (12 h:12 h light/dark cycle; lights off 11:00-23:00), temperature (23±2° C.) and relative humidity (50±20%) conditions. For each acute food intake study C57BL/6J male mice (25-30 grams body weight) were acclimated for two weeks to the appropriate light cycle and to single-housing (one mouse per cage) in cages linked to a BioDAQ automated food intake system (Research Diets Inc., New Brunswick, N.J. USA). The animals were also acclimated to new food (Research Diets 12450B, 10% kcal fat) during this time.
The BioDAQ is a computer automated scientific instrument for Biological Data Acquisition of food intake in rodents and measures food intake from each cage every 15 minutes. A total of 32 animals can be accommodated in the system per study, therefore, animals were randomized into 4 groups of n=8 for each study. […] Animals were fasted ˜4 hr prior to dosing. Vehicle (10 mM phosphate; 140 mM sodium chloride) or compound was dosed at a volume of 10 ml per kg subcutaneously approximately 20 minutes prior to the start of the dark cycle (compound chem no. and dosages are indicated in table 2 below). After dosing, food intake was recorded for approximately 24 hours.
The inhibitory effect of compounds on food intake was generally well-correlated with in vitro binding affinity on the human MC4 receptor and with plasma stability of the compound. Most studies were conducted as dose response studies with vehicle and the compound at 3 doses (0.3, 1 and 3 mg/kg). Some studies were done for the purpose of dose-range finding, while others were done to comparatively assess the effect of 3 compounds at the same dose. Maximal effects on food intake occurred within the first 1-5 hours post-dose. The comparative effect of compounds across studies on food intake was assessed by normalizing measurements as % effect on cumulative food intake after a single subcutaneous dose, relative to vehicle. Results are reported in Table 2 as % effect on food intake at 3 hours post dose.

human MC4R [2] = biological target: T1, human MC4R (Homo sapiens, UniProt P32245); assay: Functional cAMP assay (CisBio HTRF) in BHK cells expressing human MC4R; assay type: cell-based; settings: for MC1R/MC4R cAMP EC50 ratio: MC1R cAMP EC50 divided by MC4R cAMP EC50
T1 construct: expressed in transfected cells
In short: (§1)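 Compound working solutions, 10-fold dilutions from 2 μM at twice final strength, in buffer containing 1 mM IBMX, were incubated 30 min at 25 °C with BHK cells stably carrying human MC4R or MC1R. Accumulated cAMP was then detected by competitive HTRF after 1 h at 25 °C and fitted by non-linear regression.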

human MC4R [3] = biological target: T1, human MC4R; assay: 125NDP-α-MSH competitive binding to membranes of BHK cells expressing human MC4 receptor (filtration assay)
In short: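 Displacement of ^125NDP-α-MSH (apx. […] final) was measured by filtration after 2 h at 25 °C, using diluted membranes of stably transfected BHK cells in pH 7.0 HEPES buffer. Compounds spanned 1 μM to 0.001 nM; binding curves were analysed by non-linear regression.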

human MC1R = biological target: T2, human MC1R (Homo sapiens, UniProt Q01726); assay: Functional cAMP assay (CisBio HTRF) in BHK cells expressing human MC1R; assay type: cell-based
T2 construct: expressed in transfected cells
In short: as §1

[4] = human MC4R, BHK cell membranes, 125NDP-α-MSH radioligand, read-out: MC4R binding Ki
[5] = BHK cells expressing human MC4R, '>' = highest dose used with no response, read-out: MC4R cAMP EC50

T1 sequence (P32245 whole entry): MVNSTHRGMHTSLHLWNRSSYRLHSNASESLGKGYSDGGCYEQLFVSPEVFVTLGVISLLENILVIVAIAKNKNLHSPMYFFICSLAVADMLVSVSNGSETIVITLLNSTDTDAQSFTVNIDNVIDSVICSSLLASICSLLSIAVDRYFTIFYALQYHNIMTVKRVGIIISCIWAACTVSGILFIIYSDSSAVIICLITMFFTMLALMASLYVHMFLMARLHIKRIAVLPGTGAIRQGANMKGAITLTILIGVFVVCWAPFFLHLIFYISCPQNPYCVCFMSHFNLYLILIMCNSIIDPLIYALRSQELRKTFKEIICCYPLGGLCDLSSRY
T2 sequence (Q01726 whole entry): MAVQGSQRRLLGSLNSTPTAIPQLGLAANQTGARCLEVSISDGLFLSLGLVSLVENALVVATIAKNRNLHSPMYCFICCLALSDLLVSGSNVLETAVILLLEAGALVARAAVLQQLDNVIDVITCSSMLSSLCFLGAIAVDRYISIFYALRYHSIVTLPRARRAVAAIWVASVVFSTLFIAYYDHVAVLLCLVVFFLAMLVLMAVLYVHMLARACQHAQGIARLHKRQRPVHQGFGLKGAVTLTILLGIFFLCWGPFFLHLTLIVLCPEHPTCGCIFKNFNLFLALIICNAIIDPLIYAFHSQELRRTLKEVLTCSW

SMILES	% Effect on food intake at 3 hours post dose, relative to vehicle [1]	EC50 (human MC4R [2])	MC1R/MC4R cAMP EC50 ratio (human MC4R [2])	Ki (human MC4R [3]; [4])	EC50 (human MC4R [2]; [5])	EC50 (human MC1R)	Ki (human MC4R [3])
C[C@@H]1NC(=O)[C@@H]2CSSC[C@H](NC(=O)[C@H](CCCNC(=N)N)NC(=O)[C@H](CCCN)NC(=O)[C@H](CCC(=O)O)NC(=O)[C@H](Cc3c[nH]cn3)NC1=O)C(=O)N1CSC[C@H]1C(=O)N[C@@H](Cc1c[nH]cn1)C(=O)N[C@H](Cc1ccccc1)C(=O)N[C@@H](Cc1c[nH]cn1)C(=O)N[C@@H](Cc1c[nH]c3ccccc13)C(=O)N2 [Chem. 120, c[c[Cys-THAZ-His-D-Phe-His-Trp- Cys]-Ala-His-Glu-Orn-Arg]] (cyclo(AHE[Orn]RC[Thz]H[dF]HWC); disulfide 6-12)	−28 ± 12%	0.08 nM	3673	–	–	–	–
C[C@@H]1NC(=O)[C@@H]2CSSC[C@H](NC(=O)[C@H](Cc3c[nH]c4ccccc34)NC(=O)[C@H](CCCCN)NC(=O)[C@H](CCCCN)NC(=O)[C@H](CCCCN)NC1=O)C(=O)N1C[C@H](O)C[C@H]1C(=O)N[C@@H](Cc1c[nH]cn1)C(=O)N[C@H](Cc1ccccc1)C(=O)N[C@@H](Cc1c[nH]cn1)C(=O)N[C@@H](Cc1c[nH]c3ccccc13)C(=O)N2 [Chem. 70, c[c[Cys-Hyp-His-D-Phe-His-Trp-Cys]- Ala-Lys-Lys-Lys-Trp]] (cyclo(AKKKWC[Hyp]H[dF]HWC); disulfide 6-12)	−39 ± 10%	–	199	0.07 nM	0.38 nM	–	–
C[C@@H]1NC(=O)[C@@H]2CSSC[C@H](NC(=O)[C@H](Cc3c[nH]c4ccccc34)NC(=O)[C@H](CCCNC(=N)N)NC(=O)[C@@H](Cc3ccccc3)NC(=O)[C@H](Cc3c[nH]cn3)NC1=O)C(=O)N[C@@H](C)C(=O)N[C@@H](Cc1c[nH]cn1)C(=O)N[C@H](Cc1ccccc1)C(=O)N[C@@H](CCCNC(=N)N)C(=O)N[C@@H](Cc1c[nH]c3ccccc13)C(=O)N2 [Chem. 111, c[c[Cys-Ala-His-D-Phe-Arg-Trp-Cys]- Ala-His-D-Phe-Arg-Trp]]	−63 ± 4%	0.01 nM	31	–	–	0.31 nM	0.04 nM
C[C@@H]1NC(=O)[C@@H]2CSSC[C@H](NC(=O)[C@H](CCCNC(=N)N)NC(=O)[C@H](CCCCN)NC(=O)[C@H](CCCCN)NC(=O)[C@H](Cc3c[nH]cn3)NC1=O)C(=O)N1CCC[C@H]1C(=O)N[C@@H](Cc1c[nH]cn1)C(=O)N[C@H](Cc1ccccc1)C(=O)N[C@@H](Cc1c[nH]cn1)C(=O)N[C@@H](Cc1c[nH]c3ccccc13)C(=O)N2 [Chem. 96, c[c[Cys-Pro-His-D-Phe-His-Trp-Cys]- Ala-His-Lys-Lys-Arg]] (cyclo(AHKKRCPH[dF]HWC); disulfide 6-12)	−17 ± 14%	–	1442	0.04 nM	0.04 nM	–	–
C[C@@H]1NC(=O)[C@H](CCCCN)NC(=O)[C@H](CCCCN)NC(=O)[C@H](C)NC(=O)[C@@H]2CSSC[C@H](NC(=O)[C@H](Cc3c[nH]c4ccccc34)NC1=O)C(=O)N1CSC[C@H]1C(=O)N[C@@H](Cc1c[nH]cn1)C(=O)N[C@H](Cc1ccccc1)C(=O)N[C@@H](Cc1c[nH]cn1)C(=O)N[C@@H](Cc1c[nH]c3ccccc13)C(=O)N2 [Chem. 110, c[c[Cys-THAZ-His-D-Phe-His-Trp- Cys]-Ala-Lys-Lys-Ala-Trp]] (cyclo(AKKAWC[Thz]H[dF]HWC); disulfide 6-12)	−26 ± 15%	0.05 nM	1266	–	–	–	0.09 nM
NCCCC[C@@H]1NC(=O)[C@@H]2CSSC[C@H](NC(=O)[C@H](Cc3c[nH]c4ccccc34)NC(=O)[C@H](Cc3c[nH]cn3)NC(=O)[C@@H](Cc3ccccc3)NC(=O)[C@H](Cc3c[nH]cn3)NC1=O)C(=O)N[C@@H](CCCCN)C(=O)N[C@@H](Cc1c[nH]cn1)C(=O)N[C@H](Cc1ccccc1)C(=O)N[C@@H](Cc1c[nH]cn1)C(=O)N[C@@H](Cc1c[nH]c3ccccc13)C(=O)N2 [Chem. 52, c[c[Cys-Lys-His-D-Phe-His-Trp-Cys]- Lys-His-D-Phe-His-Trp]] (cyclo(CKH[dF]HWCKH[dF]HW); disulfide 1-7)	−66 ± 9%	–	207	–	–	–	–
C[C@@H]1NC(=O)[C@@H]2CSSC[C@H](NC(=O)[C@H](Cc3c[nH]c4ccccc34)NC(=O)[C@H](CCCCN)NC(=O)[C@H](CCCCN)NC(=O)[C@H](CCCCN)NC1=O)C(=O)N1CSC[C@H]1C(=O)N[C@@H](Cc1c[nH]cn1)C(=O)N[C@H](Cc1ccccc1)C(=O)N[C@@H](Cc1c[nH]cn1)C(=O)N[C@@H](Cc1c[nH]c3ccccc13)C(=O)N2 [Chem. 81, c[c[Cys-THAZ-His-D-Phe-His-Trp- Cys]-Ala-Lys-Lys-Lys-Trp]] (cyclo(AKKKWC[Thz]H[dF]HWC); disulfide 6-12)	−72 ± 7%	0.07 nM	957	–	–	–	0.03 nM
